From the CheMixHub ionic liquid set

Assay: xn = mol fraction of the nth substance listed

CCCC(=O)O + CC(CC(C)(C)C)CP(=O)([O-])CC(C)CC(C)(C)C.CCCCCCCCCCCCCC[P+](CCCCCC)(CCCCCC)CCCCCC
Details | viscosity [mPa·s]
298 K, 100 kPa, x2 = 0.9022 | 950

CCCC[P+](c1ccccc1)(c1ccccc1)c1ccccc1.[Br-] + O=S=O + OCCO
100 kPa
Details | viscosity [mPa·s]
303.15 K, x2 = 0.01371, x3 = 0.9622 | 22
313.15 K, x2 = 0.01059, x3 = 0.9653 | 18.4
323.15 K, x2 = 0.008625, x3 = 0.9672 | 15.5
333.15 K, x2 = 0.007346, x3 = 0.9684 | 12.9
343.15 K, x2 = 0.005964, x3 = 0.9698 | 11.5

CC[n+]1ccn(C)c1.N#C[S-] + CC[n+]1ccn(C)c1.O=S(=O)([O-])C(F)(F)F
Details | viscosity [mPa·s]
293 K, 100 kPa, x1 = 0.5 | 36.4

CC(=O)[O-].CCOCCn1cc[n+](C)c1 + O
100 kPa
Details | electrical conductivity [S/m] | viscosity [mPa·s]
293.15 K, x1 = 0.9129 | 0.288 | 35.75
293.15 K, x1 = 0.9447 | 0.25 | 36.71
298.15 K, x1 = 0.9447 | 0.31 | 28.98
303.15 K, x1 = 0.9447 | 0.394 | 23.12
308.15 K, x1 = 0.8821 | 0.586 | 17.7
313.15 K, x1 = 0.8524 | 0.764 | 14.07
313.15 K, x1 = 0.8821 | 0.719 | 14.45
313.15 K, x1 = 1 | 0.568 | 15.8

CCCCCCCCn1cc[n+](C)c1.[Cl-] + CCO
viscosity [mPa·s], 101 kPa
Details | x2 = 0.0449 | x2 = 0.1305 | x2 = 0.6858 | x2 = 0.8809 | x2 = 0.9794
298.15 K | 12600 | 5400 | – | – | –
313.15 K | – | – | 14.6 | – | 1.061
328.15 K | 830 | – | 9.12 | 1.997 | 0.819

COC(=O)OC + CCCCn1cc[n+](C)c1C.O=S(=O)([N-]S(=O)(=O)C(F)(F)F)C(F)(F)F
101.3 kPa, x2 = 0
Details | viscosity [mPa·s]
288.15 K | 0.668
293.15 K | 0.628
298.15 K | 0.588
303.15 K | 0.553
308.15 K | 0.524
313.15 K | 0.498

CCCCC(CC)COC(=O)CC(C(=O)OCC(CC)CCCC)S(=O)(=O)[O-].CCCC[n+]1ccn(C)c1 (stereo unspecified) + O
99.6 kPa, x1 = 0.8687
Details | viscosity [mPa·s]
293.15 K | 3442
303.15 K | 1454

CC[S+](CC)CCOCCOCCOCC[S+](CC)CC.O=S(=O)([N-]S(=O)(=O)C(F)(F)F)C(F)(F)F.O=S(=O)([N-]S(=O)(=O)C(F)(F)F)C(F)(F)F + CC[n+]1ccn(C)c1.N#C[N-]C#N + O=S(=O)([N-]S(=O)(=O)C(F)(F)F)C(F)(F)F.[Li+]
100 kPa, x1 = 0.1475, x2 = 0.7497
Details | electrical conductivity [S/m]
298 K | 0.673
303 K | 0.826
313 K | 1.15
323 K | 1.46
333 K | 1.79
343 K | 2.05

CC[n+]1ccn(C)c1.N#C[S-] + CCOS(=O)(=O)[O-].CC[n+]1ccn(C)c1
100 kPa
Details | electrical conductivity [S/m] | viscosity [mPa·s]
298.15 K, x1 = 0.67 | 1.16 | 43.5
308.15 K, x1 = 0.199 | 0.688 | 61.2
313.15 K, x1 = 0.429 | 1.19 | 43.1
318.15 K, x1 = 0.9505 | 3.6 | 15.57
323.15 K, x1 = 0.899 | 3.66 | 13.3
328.15 K, x1 = 0.429 | – | 22.05
333.15 K, x1 = 0.32 | – | 22.93
338.15 K, x1 = 0.899 | – | 9.45
343.15 K, x1 = 0.32 | – | 17.43
343.15 K, x1 = 0.429 | – | 14.75
348.15 K, x1 = 0.9505 | – | 7.21

CCCCCCCC[n+]1ccccc1.F[B-](F)(F)F + O
101.3 kPa
Details | viscosity [mPa·s]
288.15 K, x2 = 0 | 447
288.15 K, x2 = 0.1 | 289
288.15 K, x2 = 0.184 | 192.6
288.15 K, x2 = 0.324 | 121.3
288.15 K, x2 = 0.477 | 89
288.15 K, x2 = 0.67 | 50.65
288.15 K, x2 = 0.758 | 37.8
293.15 K, x2 = 0.1 | 213
293.15 K, x2 = 0.184 | 145.6
293.15 K, x2 = 0.324 | 94.1
298.15 K, x2 = 0.67 | 32.69
298.15 K, x2 = 0.758 | 23.24
308.15 K, x2 = 0 | 134.8
308.15 K, x2 = 0.783 | 15.11
313.15 K, x2 = 0.562 | 19.43
313.15 K, x2 = 0.67 | 18.67
318.15 K, x2 = 0 | 81.6
318.15 K, x2 = 0.324 | 32.19
323.15 K, x2 = 0.324 | 27.26
328.15 K, x2 = 0.1 | 38.44
328.15 K, x2 = 0.184 | 30.98
328.15 K, x2 = 0.758 | 8.61
333.15 K, x2 = 0 | 45.28
333.15 K, x2 = 0.1 | 32.1
333.15 K, x2 = 0.184 | 26.18
333.15 K, x2 = 0.758 | 7.63
338.15 K, x2 = 0.67 | 9.23
343.15 K, x2 = 0.324 | 15.05
343.15 K, x2 = 0.67 | 7.99
348.15 K, x2 = 0 | 27.77
348.15 K, x2 = 0.477 | 10.05

CC(=O)[O-].[Na+] + CC(=O)[O-].CC[n+]1ccn(C)c1
303.15 K, 101 kPa, x1 = 0.1001
Details | electrical conductivity [S/m] | viscosity [mPa·s]
– | 0.252 | 147.4

CCCC[P+](CCCC)(CCCC)CCCC.F[B-](F)(F)F + C1COCO1
298.15 K, 100 kPa
Details | viscosity [mPa·s]
x1 = 0.0007033 | 0.595
x1 = 0.001051 | 0.6
x1 = 0.001406 | 0.606
x1 = 0.001753 | 0.613
x1 = 0.002107 | 0.62
x1 = 0.002453 | 0.627

CCCC[N+]1(C)CCCCC1.N#C[N-]C#N + O
100 kPa
Details | viscosity [mPa·s]
298.15 K, x2 = 0.2122 | 73
328.15 K, x2 = 0.7349 | 6.6
333.15 K, x2 = 0.6419 | 8

N#C[C-](C#N)C#N.OCC[n+]1ccccc1 + c1ccsc1
101 kPa
Details | viscosity [mPa·s]
293.15 K, x1 = 0.7041 | 52.2
293.15 K, x1 = 1 | 137
298.15 K, x1 = 0.901 | 67.1
303.15 K, x1 = 0.4996 | 19.1
303.15 K, x1 = 0.901 | 50.9
318.15 K, x1 = 0.8044 | 21.1
323.15 K, x1 = 0.6 | 12.2
328.15 K, x1 = 0.7041 | 12.6
328.15 K, x1 = 0.901 | 17.9
333.15 K, x1 = 0.4996 | 7.57
333.15 K, x1 = 0.6 | 9.12
338.15 K, x1 = 0.4042 | 5.4
338.15 K, x1 = 0.4996 | 6.54
338.15 K, x1 = 0.7041 | 9.43
343.15 K, x1 = 0.4996 | 5.74
343.15 K, x1 = 0.8044 | 9.9

CCCCCCCCCCCCCCCC[N+](C)(C)C.[Br-] + O + CO
electrical conductivity [S/m], 101 kPa
Details | 293 K | 298 K | 303 K | 308 K | 313 K
x1 = 1.91e-06, x2 = 0.92 | 0.0025 | 0.0026 | 0.0022 | 0.0037 | 0.003
x1 = 5.74e-06, x2 = 0.92 | 0.0046 | 0.0047 | 0.0044 | 0.0063 | 0.0059
x1 = 9.57e-06, x2 = 0.92 | 0.0065 | 0.0067 | 0.0069 | – | 0.0088
x1 = 1.148e-05, x2 = 0.92 | 0.0077 | 0.0079 | 0.0083 | 0.0107 | 0.0106
x1 = 1.34e-05, x2 = 0.92 | 0.0087 | 0.009 | 0.0096 | 0.0122 | 0.0122
x1 = 1.531e-05, x2 = 0.92 | 0.0099 | 0.0102 | 0.0109 | – | 0.014
x1 = 1.723e-05, x2 = 0.92 | 0.0111 | 0.0114 | 0.0123 | 0.0157 | 0.016
x1 = 1.914e-05, x2 = 0.92 | 0.0121 | 0.0125 | 0.0138 | 0.0174 | 0.018
x1 = 2.871e-05, x2 = 0.92 | 0.0168 | 0.018 | 0.0199 | 0.0248 | 0.0261
x1 = 3.828e-05, x2 = 0.92 | 0.0215 | 0.0236 | 0.0263 | 0.0325 | 0.0352
x1 = 5.742e-05, x2 = 0.9199 | 0.0306 | 0.0338 | 0.0381 | 0.0467 | 0.0521
x1 = 7.656e-05, x2 = 0.9199 | 0.0391 | 0.0441 | 0.0502 | 0.0608 | 0.0687
x1 = 9.57e-05, x2 = 0.9199 | 0.0439 | 0.0508 | 0.0579 | 0.0702 | –
x1 = 0.0001148, x2 = 0.9199 | 0.0472 | 0.0552 | 0.0632 | 0.0758 | –
x1 = 0.000134, x2 = 0.9199 | 0.05 | 0.0585 | 0.0675 | 0.0806 | –
x1 = 0.0001531, x2 = 0.9199 | 0.0527 | 0.0618 | 0.0719 | 0.0858 | –
x1 = 0.0001722, x2 = 0.9198 | 0.0554 | 0.0652 | 0.0758 | 0.0904 | –
x1 = 0.0001914, x2 = 0.9198 | 0.0582 | 0.0684 | 0.0801 | 0.0955 | –
x1 = 0.0002105, x2 = 0.9198 | 0.0607 | 0.0715 | 0.0839 | 0.101 | –
x1 = 0.0002296, x2 = 0.9198 | 0.0631 | 0.0747 | 0.0879 | 0.105 | –
x1 = 0.0002488, x2 = 0.9198 | 0.0661 | 0.078 | 0.0917 | 0.11 | –
x1 = 0.0002679, x2 = 0.9198 | 0.0688 | 0.0811 | 0.0958 | 0.115 | –

COC(=O)OC + CC[n+]1ccn(C)c1.O=S(=O)([N-]S(=O)(=O)C(F)(F)F)C(F)(F)F
101.3 kPa, x2 = 0
Details | viscosity [mPa·s]
288.15 K | 0.668
293.15 K | 0.628
298.15 K | 0.588
303.15 K | 0.553
308.15 K | 0.524

CCCCCCCCCCCCCCCC[N+](C)(C)C.[Br-] + OC[C@H]1O[C@H](O[C@H]2[C@H](O)[C@@H](O)C(O)O[C@@H]2CO)[C@H](O)[C@@H](O)[C@@H]1O + O
viscosity [mPa·s], 100 kPa
Details | 298.15 K | 308.15 K | 318.15 K
x1 = 7.21e-06, x2 = 0 | 0.896 | 0.742 | 0.617
x1 = 1.442e-05, x2 = 0 | 0.898 | 0.744 | 0.617
x1 = 2.162e-05, x2 = 0 | 0.9 | 0.745 | 0.617
